Experimental data taken from patent US20150307841A1, “Composition for Promoting Differentiation and Proliferation of Neural Stem Cell and Neural Precursor Cell” (priority 2014, published 2015).

Assays:
[1] = system: memory-deficient model rats; test: Y-maze test in ibotenic acid-induced memory-deficient model rats; assay type: in vivo, rat
Text: Ibotenic acid is a neurotoxin present in mushrooms and is known to cause powerful damage to neurons when directly injected into the brain of mice or rats. In particular, because senile plaques and neuronal cell death appear in the entorhinal cortex and hippocampus in early Alzheimer's disease patients (Ueki A et al. J Neurol Sci, 1994), memory-deficient model rats were generated by injecting ibotenic acid (IBO) into the entorhinal cortex. The surgical protocol followed Heo H et al.'s method (J Ethnopharmacol, 2009) with some modifications. In the model animals, the injection of ibotenic acid induces cell death not only in the entorhinal cortex but also in the CA and DG regions of the hippocampus and impairs hippocampus-related learning and memory abilities.
The 6-week-old rats were anesthetized with equithesin (350 mM pentobarbital sodium, 250 mM chloral hydrate, 85 mM MgSO4 and 40% propylene glycol in 10% ethanol, 2 mL/kg). To induce cell death in the dentate gyrus and hippocampus in addition to the entorhinal cortex, ibotenic acid (1.5 μL per animal, 1 mg/mL) was injected into the entorhinal cortex as follows. The rat was placed in a stereotaxic device (Stoelting Co., Wood Dale, Ill., USA) with the incisor bar 3.4 mm below the interaural line. The needle was positioned 10° right to the midsaggital plane. Then, ibotenic acid was injected at 3 locations into the entorhinal cortex and medial entorhinal cortex at a rate of 0.35 μL/min (first, AP: 8.4 mm, ML: 4.8 mm, DV: 4.6-4.8 mm; second, AP: 8.4 mm, ML: 4.8 mm, DV: 2.6-2.8 mm; third, AP: 8.8 mm, ML: 3.65 mm, DV: 4.8 mm). […]
The maze was made of black-colored acryl and was positioned at equal angles. […] Arm entry was recorded when the hind paws were completely placed in the arm. Consecutive entry into 3 arms in an alternative order was defined as successive entries on overlapping triplet sets, and alternation percentage was calculated as the ratio of actual to possible alternations (defined as the total number of arm entries minus 2), multiplied by 100. […]

[2] = system: hippocampal neural precursor cells (NPCs); test: Ki67 immunostaining of cultured embryonic neural precursor cells (proliferation); assay type: cell-based, rat
Text: Pregnant Sprague-Dawley rats purchased from Orient Animal Breeding Center (a branch of Charles River Laboratories, Gyeonggi-do, Korea) were sacrificed by exposing to CO2 inhalation. Hippocampal neural precursor cells (NPCs) were isolated from the brain of the E16 rat embryo according to the method of Shin M H et al. (Exp Mol Med, 2002) with slight modifications.
Briefly, hippocampi were aseptically dissected from the embryonic forebrain, mechanically dissociated in Ca^2+/Mg^2+-free Hank's balanced salt solution (HBSS) and then plated at 7×10^5 cells/cm^2 on 60-mm dishes pre-coated with 15 μg/mL poly-L-ornithine and 1 μg/mL fibronectin. The neural precursor cells were cultured in serum-free N2 media supplemented with 10 ng/mL bFGF in 5% CO2 for 3 days and then detached using 0.05% trypsin-ethylenediaminetetraacetic acid (EDTA). The neural precursor cells were plated on 12-mm cover glasses (Bellco Co., Vineland, N.J., USA) and cultured one more day in N2 media supplemented with 10 ng/mL bFGF in 5% CO2 (primary culturing).
Following the primary culturing in (1), immunohistochemical analysis was conducted using Ki67 antibodies in order to confirm the effect of soyasaponin I on proliferation of the embryonic neural precursor cells. […]

## C[C@@H]1O[C@@H](O[C@H]2[C@H](O[C@H]3[C@H](O[C@H]4CC[C@@]5(C)[C@@H](CC[C@]6(C)[C@@H]5CC=C5[C@@H]7CC(C)(C)C[C@@H](O)[C@]7(C)CC[C@]56C)[C@@]4(C)CO)O[C@H](C(=O)O)[C@@H](O)[C@@H]3O)O[C@H](CO)[C@H](O)[C@@H]2O)[C@H](O)[C@H](O)[C@H]1O [soyasaponin I]
[1]; 10 mg/kg oral, tests 2 weeks after administration (Experimental Example 2)
  Y-maze number of total entries: not significantly different
[1]; Experimental Example 1, tests immediately after administration, group 1 (Soya-I)
  Y-maze spontaneous alterations (decreased memory of IBO group): improved
[1]; soyasaponin I 10 mg/kg oral, tests 2 weeks after administration (Experimental Example 2)
  Y-maze spontaneous alterations, increase compared with the non-soyasaponin I-administered group (IBO): 78.57%
[2]; 2 μM soyasaponin I
  Increase in the number of proliferating (Ki67) cells compared with the normal group (Vehicle): 2.5 fold
[2]; 0.5, 1, 2 μM
  Proliferation of the neural precursor cells (Ki67), concentration dependence: increased rapidly
